# Data: patent publication US4595535A, “Diazacycloalkyl-1,2,4-triazolo[2,3-c][1,3]benzodiazepines useful as neuroleptic and/or antihistaminic agents” (Ciba-Geigy Corporation, priority 1984, dated 1986)
# Tests used:
# [1] = system: avoidance behaviour in monkeys; assay: conditioned avoidance behaviour (lever press to avoid foot shock), monkeys; assay type: in vivo, squirrel monkeys; conditions: Primates, oral, read-out: oral dose that disrupts avoidance behaviour (decreases avoidance responses)
# Experimental: (§1) Each lever press postpones the shock for 30 seconds. Whenever the animal fails to press the lever once within said period, brief (0.5 sec.) shocks are delivered at 15 second intervals until the animal again presses the lever. Under control conditions the animals press the lever at a moderately steady rate and seldom receive more than five or six shocks during a 25-minute (rats) and up to 4-hour experimental session. Said compounds evaluated for neuroleptic activity, are administered to the animals 30, 90, 210 minutes prior to the experimental session and block the learned conditioned avoidance behaviour, manifested by a decrease in avoidance responding with a marked increase in shocks taken by the animal. Both the avoidance responses and failures (shocks received) are recorded separately for evaluation.
# (§2) Indicative of the antipsychotic utility of the compounds of this invention, e.g. the compound of example 1, namely 2-methyl-5-(4-methyl-1-piperazinyl)-11H-1,2,4-triazolo[2,3-c][1,3]benzodiazepine maleate, disrupts avoidance behaviour, e.g. decreases avoidance responses in rats and monkeys at an oral dose of about 1.0 mg/kg or lower.
# [2] = system: avoidance behaviour in rats; assay: conditioned avoidance behaviour (lever press to avoid foot shock), rats; assay type: in vivo; conditions: Rattus norvegicus, oral, read-out: oral dose that disrupts avoidance behaviour (decreases avoidance responses)
# Experimental: as §1, §2
# [3] = biological target: histamine activation of adenylate cyclase; assay: inhibition of histamine activation of adenylate cyclase in vesicles from guinea pig cerebral cortex; assay type: biochemical; conditions: 50 micromolar histamine, 3H-cyclic AMP synthesis
# Experimental: Finally, said antihistaminic properties can be shown in vitro, e.g., according to Chasin et al., J. Neurochem. 22, 1031 (1974). Vesicles from a cell free preparation of guinea pig cerebral cortex are preincubated with ^3 H-adenine to form endogenous ^3 H-adenosine triphosphate. The vesicles are then incubated with 50 micromolar histamine to activate ^3 H-cyclic adenosine monophosphate synthesis in the absence or presence of the test compound at a concentration between 0.01 and 100 micromolar. When said compound is active, it inhibits the histamine activation of adenylate cyclase. The IC50 represents the concentration at which histamine activation is inhibited by 50%.
# [4] = system: extrapyramidal side effects, e.g. dyskinesias and dystonias; assay: extrapyramidal side effects in the monkey; assay type: in vivo; conditions: at effective antipsychotic doses
structure (smiles),measurement,setting,value
"Cc1nc2n(n1)C(N1CCN(C)CC1)=Nc1ccccc1C2.O=C(O)/C=C\C(=O)O [Example 1, 2-methyl-5-(4-methyl-1-piperazinyl)-11H-1,2,4-triazolo[2,3-c][1,3]-benzodiazepine monomaleate]",minimal effective dose,[1],≤ 1 mg/kg
same,minimal effective dose,[2],≤ 1 mg/kg
same,IC50,[3],~300 nM
same,"extrapyramidal side effects, e.g. dyskinesias and dystonias",[4],essentially free of extrapyramidal side effects
